Values after ≈ are worked out from the molar mass of the structure shown. Values joined by “and” are separate entries in the source; they are usually repeats but may differ in a detail not shown here. Identical values can stand only once. Like-named read-outs stand apart in the source and are kept apart here.
What was measured:
HCMV strain AD 169 = assay: Rabbit HCMV ascending dose efficacy and time course recovery (Example 7); conditions: for Vitreo-retinal score: sum of both eyes
Punta toro virus = assay: microbe, parasite or virus in culture; conditions: Vero
HIV-1 = assay: In vitro antiviral MTT CPE assay; format: cell-based
Sandfly fever virus = assay: microbe, parasite or virus in culture; conditions: sandfly fever Sicilian virus, Vero
clinical HCMV isolate = format: cell-based
HCMV strain AD169 = format: cell-based
[1] = day 6, PALA 75 mg/kg/d, with or without steroid
[2] = day 6, PALA 50 or DHPG 10 mg/kg/d
[3] = day 7, PALA 75 mg/kg/d, with or without steroid
[4] = day 12, PALA 75 mg/kg/d, with or without steroid
[5] = day 12, PALA 50 or DHPG 10 mg/kg/d

SMILES: O=C(O)C[C@H](NC(=O)CP(=O)(O)O)C(=O)O [PALA]
- Vitreo-retinal score (HCMV strain AD 169; day 5, PALA 50 or DHPG 10 mg/kg/d): 0.65 and 1.25
- HCMV Titer, OS (HCMV strain AD 169; day 6, PALA 50 mg/kg/d): 10^3 pfu and 10^2 pfu
- HCMV titer (HCMV strain AD 169; day 6, PALA 50 mg/kg/d): 10^2 pfu/ml
- HCMV Recovered, OD (HCMV strain AD 169; [1]): + and -
- HCMV Recovered, OS (HCMV strain AD 169; [1]): + and -
- HCMV Titer, OD (HCMV strain AD 169; [1]): 10^3 pfu
- HCMV Titer, OS (HCMV strain AD 169; [1]): 10^4 pfu
- HCMV recovery frequency (HCMV strain AD 169; [1]): 3/4 and 2/4
- Optic neuritis score (ONH) (HCMV strain AD 169; [1]): 2.0
- HCMV Recovered, OD (HCMV strain AD 169; day 6, PALA 100 mg/kg/d): +
- HCMV Recovered, OS (HCMV strain AD 169; day 6, PALA 100 mg/kg/d): - and +
- HCMV Titer, OD (HCMV strain AD 169; day 6, PALA 100 mg/kg/d): 10^2 pfu
- HCMV Titer, OS (HCMV strain AD 169; day 6, PALA 100 mg/kg/d): 10^3 pfu
- HCMV recovery frequency (HCMV strain AD 169; day 6, PALA 100 mg/kg/d): 3/4
- Optic neuritis score (ONH) (HCMV strain AD 169; day 6, PALA 100 mg/kg/d): 4.0
- Vitreo-retinal score (HCMV strain AD 169; day 6, PALA 100 mg/kg/d): 4.0
- Average HCMV titer (HCMV strain AD 169; [2]): 10^2 pfu
- HCMV Recovered, OD (HCMV strain AD 169; [2]): +
- HCMV Recovered, OS (HCMV strain AD 169; [2]): +
- HCMV Titer, OD (HCMV strain AD 169; [2]): 10^2 pfu
- HCMV recovery frequency (HCMV strain AD 169; [2]): 4/4
- Optic neuritis score (ONH) (HCMV strain AD 169; [2]): 1.0 and 0.5
- Vitreo-retinal score (HCMV strain AD 169; [2]): 0.75 and 0.6
- Optic neuritis score (ONH) (HCMV strain AD 169; [3]): 0
- Vitreo-retinal score (HCMV strain AD 169; [3]): 5.0
- Optic neuritis score (ONH) (HCMV strain AD 169; day 7, PALA 100 mg/kg/d): 2.5 and 4.0
- Vitreo-retinal score (HCMV strain AD 169; day 7, PALA 100 mg/kg/d): 3.25 and 4.25
- Vitreo-retinal score (HCMV strain AD 169; day 7, PALA 50 or DHPG 10 mg/kg/d): 0.4
- HCMV Recovered, OD (HCMV strain AD 169; [4]): -
- HCMV Recovered, OS (HCMV strain AD 169; [4]): -
- HCMV Recovered, OD (HCMV strain AD 169; day 12, PALA 100 mg/kg/d): -
- HCMV Recovered, OS (HCMV strain AD 169; day 12, PALA 100 mg/kg/d): -
- HCMV Recovered, OD (HCMV strain AD 169; [5]): -
- HCMV Recovered, OS (HCMV strain AD 169; [5]): -
- IC50 (Punta toro virus): 15.2 µg/mL (≈ 59.6 µM)
- TI (HIV-1; CEM): ~ 5.0
- IC50 (HIV-1; Human immunodeficiency virus 1, CCRF-CEM): 12 µg/mL (≈ 47 µM)
- IC50 (Sandfly fever virus): 20.9 µg/mL (≈ 81.9 µM)
- reduction of HCMV titer (clinical HCMV isolate): effective in reducing the titer
- log reduction at 10 µg/mL (clinical HCMV isolate; Human betaherpesvirus 5, Hs68, read-out: viral yield reduction): 2 to 3
- Cell associated HCMV titer (clinical HCMV isolate; day 0 PI): 10^2 PFU/ml
- Cell free (supernatant) HCMV titer (clinical HCMV isolate; day 0 PI): 10^5 PFU/ml
- Cell associated HCMV titer (clinical HCMV isolate; day 1 PI): 10^3 PFU/ml
- Cell free (supernatant) HCMV titer (clinical HCMV isolate; day 1 PI): 10^2 PFU/ml
- Cell associated HCMV titer (clinical HCMV isolate; day 2 PI): 10^2 PFU/ml
- Cell free (supernatant) HCMV titer (clinical HCMV isolate; day 2 PI): 10^1 PFU/ml
- Cell associated HCMV titer (clinical HCMV isolate; day 3 PI): 10^1 PFU/ml
- Cell free (supernatant) HCMV titer (clinical HCMV isolate; day 3 PI): 10^2 PFU/ml
- Cell associated HCMV titer (clinical HCMV isolate; day 4 PI): 10^1 PFU/ml
- Cell free (supernatant) HCMV titer (clinical HCMV isolate; day 4 PI): 10^1 PFU/ml
- Cell associated HCMV titer (clinical HCMV isolate; day 5 PI): 0 PFU/ml
- Cell free (supernatant) HCMV titer (clinical HCMV isolate; day 5 PI): 10^1 PFU/ml
- Cell associated HCMV titer (clinical HCMV isolate; day 6 PI): 10^1 PFU/ml
- Cell associated HCMV titer (clinical HCMV isolate; day 7 PI): 10^1 PFU/ml
- log reduction at 10 µg/mL (HCMV strain AD169; Human betaherpesvirus 5, AD169, Hs68, read-out: viral yield reduction): 2 to 3
- reduction of HCMV titer (HCMV strain AD169; PALA 3 μg/ml, DHPG 19 μg/ml): effective in reducing HCMV titers
- Cell associated HCMV titer (HCMV strain AD169; day 0 PI): 10^2 PFU/ml
- Cell free (supernatant) HCMV titer (HCMV strain AD169; day 0 PI): 10^5 PFU/ml
- Cell associated HCMV titer (HCMV strain AD169; day 1 PI): 10^3 PFU/ml
- Cell free (supernatant) HCMV titer (HCMV strain AD169; day 1 PI): 10^1 PFU/ml
- Cell associated HCMV titer (HCMV strain AD169; day 2 PI): 10^1 PFU/ml
- Cell free (supernatant) HCMV titer (HCMV strain AD169; day 2 PI): 10^1 PFU/ml
- Cell associated HCMV titer (HCMV strain AD169; day 3 PI): 10^1 PFU/ml
- Cell free (supernatant) HCMV titer (HCMV strain AD169; day 3 PI): 10^3 PFU/ml
- Cell associated HCMV titer (HCMV strain AD169; day 4 PI): 10^1 PFU/ml
- Cell free (supernatant) HCMV titer (HCMV strain AD169; day 4 PI): 10^2 PFU/ml
- Cell associated HCMV titer (HCMV strain AD169; day 5 PI): 10^1 PFU/ml
- Cell free (supernatant) HCMV titer (HCMV strain AD169; day 5 PI): 10^1 PFU/ml
- Cell associated HCMV titer (HCMV strain AD169; day 6 PI): 10^1 PFU/ml
- Cell associated HCMV titer (HCMV strain AD169; day 7 PI): 0 PFU/ml
